The target of this assay is T1, His-tagged full-length RSK2 (RPS6KA3) (Homo sapiens, UniProt P51812).
T1 construct: His-tagged full-length RSK2 (RPS6KA3, Invitrogen PV3323); His; purchased Invitrogen PV3323
T1 sequence (P51812 whole entry): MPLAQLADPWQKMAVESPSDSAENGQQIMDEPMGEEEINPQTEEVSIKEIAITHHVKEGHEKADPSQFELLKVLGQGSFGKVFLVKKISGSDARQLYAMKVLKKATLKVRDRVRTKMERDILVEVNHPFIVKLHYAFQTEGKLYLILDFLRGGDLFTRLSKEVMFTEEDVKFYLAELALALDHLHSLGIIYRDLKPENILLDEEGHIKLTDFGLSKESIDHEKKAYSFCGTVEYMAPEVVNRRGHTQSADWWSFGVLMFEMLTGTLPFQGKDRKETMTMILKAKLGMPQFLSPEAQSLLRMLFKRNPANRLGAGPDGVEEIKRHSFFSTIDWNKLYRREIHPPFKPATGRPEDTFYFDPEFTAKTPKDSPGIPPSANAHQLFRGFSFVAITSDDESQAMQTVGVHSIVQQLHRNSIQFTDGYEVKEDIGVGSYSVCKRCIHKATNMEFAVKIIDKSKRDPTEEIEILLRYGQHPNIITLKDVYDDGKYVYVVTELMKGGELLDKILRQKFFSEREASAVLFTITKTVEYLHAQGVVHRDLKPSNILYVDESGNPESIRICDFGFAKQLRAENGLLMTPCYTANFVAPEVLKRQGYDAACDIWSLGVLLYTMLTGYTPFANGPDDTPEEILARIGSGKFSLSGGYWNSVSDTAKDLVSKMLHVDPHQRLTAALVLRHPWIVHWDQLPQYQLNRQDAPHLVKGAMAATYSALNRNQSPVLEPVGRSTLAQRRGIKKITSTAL
Put plainly: RSK2 Omnia Assay for compound IC50 determination. The assay is classed as biochemical. The settings on record: ATP 15 μM, n=2, read-out: Mean RSK2 Biochem IC50. The essentials: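 Initial-rate slopes from continuous kinetic reads were fitted to a four-parameter equation for IC50 (n=2). Ki was then derived by Cheng-Prusoff assuming ATP-competitive inhibition. Reactions contained 15 μM ATP (Km 16.3 μM), 5 μM Omnia ST Peptide 6, and […] in 50 mM HEPES pH 7.5, 10 mM MgCl2, 1 mM DTT, 1% DMSO. Compounds spanned 11 threefold steps, […] final.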
With `COc1ccc(N2C(=O)[C@@H](C)N(C3CCOCC3)c3nc(Nc4ccc5[nH]c(=O)oc5c4)ncc32)cc1C#N` [compound 197, 2-Methoxy-5-[(7R)-7-methyl-6-oxo-2-[(2-oxo-2,3-dihydro-1,3-benzoxazol-6-yl)amino]-8-(tetrahydro-2H-pyran-4-yl)-7,8-dihydropteridin-5(6H)-yl]benzonitrile], the IC50 (in general, the concentration needed to halve the response being measured) was not above 100 nM.

In the case of `CCOc1ccc(N2C(=O)[C@@H](C)N(C3CCOCC3)c3nc(Nc4ccc5[nH]c(=O)oc5c4)ncc32)cc1C#N` [compound 198, 2-Ethoxy-5-[(7R)-7-methyl-6-oxo-2-[(2-oxo-2,3-dihydro-1,3-benzoxazol-6-yl)amino]-8-(tetrahydro-2H-pyran-4-yl)-7,8-dihydropteridin-5(6H)-yl]benzonitrile], the IC50 is not above 100 nM.

Turning to `CC(C)Oc1ccc(N2C(=O)[C@@H](C)N(C3CCOCC3)c3nc(Nc4ccc5[nH]c(=O)oc5c4)ncc32)cc1C#N` [compound 199, 5-[(7R)-7-methyl-6-oxo-2-[(2-oxo-2,3-dihydro-1,3-benzoxazol-6-yl)amino]-8-(tetrahydro-2H-pyran-4-yl)-7,8-dihydropteridin-5(6H)-yl]-2-(propan-2-yloxy)benzonitrile], the IC50 was not above 100 nM.

In the case of `COc1ccc(N2C(=O)[C@@H](C)N(C3CCOCC3)c3nc(Nc4cnc5[nH]ncc5c4)ncc32)cc1C#N` [compound 200, 2-methoxy-5-[(7R)-7-methyl-6-oxo-2-(1H-pyrazolo[3,4-b]pyridin-5-ylamino)-8-(tetrahydro-2H-pyran-4-yl)-7,8-dihydropteridin-5(6H)-yl]benzonitrile], the IC50 is not above 100 nM.

For the compound `CCOc1ccc(N2C(=O)[C@@H](C)N(C3CCOCC3)c3nc(Nc4cnc5[nH]ncc5c4)ncc32)cc1C#N` [compound 201, 2-Ethoxy-5-[(7R)-7-methyl-6-oxo-2-(1H-pyrazolo[3,4-b]pyridin-5-ylamino)-8-(tetrahydro-2H-pyran-4-yl)-7,8-dihydropteridin-5(6H)-yl]benzonitrile], the IC50 was not above 100 nM.

Take `CC(C)Oc1ccc(N2C(=O)[C@@H](C)N(C3CCOCC3)c3nc(Nc4cnc5[nH]ncc5c4)ncc32)cc1C#N` [compound 202, 5-[(7R)-7-methyl-6-oxo-2-(1H-pyrazolo[3,4-b]pyridin-5-ylamino)-8-(tetrahydro-2H-pyran-4-yl)-7,8-dihydropteridin-5(6H)-yl]-2-(propan-2-yloxy)benzonitrile]: the IC50 is not above 100 nM.

On to `COc1ccc(N2C(=O)[C@@H](C)N(C3CCOCC3)c3nc(Nc4cc(F)c5[nH]c(=O)oc5c4)ncc32)cc1C#N` [compound 203, 5-[(7R)-2-[(4-fluoro-2-oxo-2,3-dihydro-1,3-benzoxazol-6-yl)amino]-7-methyl-6-oxo-8-(tetrahydro-2H-pyran-4-yl)-7,8-dihydropteridin-5(6H)-yl]-2-methoxybenzonitrile], for which the IC50 is not above 100 nM.

In the case of `CCOc1ccc(N2C(=O)[C@@H](C)N(C3CCOCC3)c3nc(Nc4cc(F)c5[nH]c(=O)oc5c4)ncc32)cc1C#N` [compound 204, 2-Ethoxy-5-[(7R)-2-[(4-fluoro-2-oxo-2,3-dihydro-1,3-benzoxazol-6-yl)amino]-7-methyl-6-oxo-8-(tetrahydro-2H-pyran-4-yl)-7,8-dihydropteridin-5(6H)-yl]benzonitrile], the IC50 is not above 100 nM.

Take `CC(C)Oc1ccc(N2C(=O)[C@@H](C)N(C3CCOCC3)c3nc(Nc4cc(F)c5[nH]c(=O)oc5c4)ncc32)cc1C#N` [compound 205, 5-[(7R)-2-[(4-fluoro-2-oxo-2,3-dihydro-1,3-benzoxazol-6-yl)amino]-7-methyl-6-oxo-8-(tetrahydro-2H-pyran-4-yl)-7,8-dihydropteridin-5(6H)-yl]-2-(propan-2-yloxy)benzonitrile]: the IC50 was not above 100 nM.

As for `C[C@@H]1C(=O)N(c2ccc(N3CCN(C)CC3)c(C#N)c2)c2cnc(Nc3cc(F)c4[nH]ncc4c3)nc2N1C1CCOCC1` [compound 206, 5-[(7R)-2-[(7-fluoro-1H-indazol-5-yl)amino]-7-methyl-6-oxo-8-(tetrahydro-2H-pyran-4-yl)-7,8-dihydropteridin-5(6H)-yl]-2-(4-methylpiperazin-1-yl)benzonitrile], the IC50 is not above 100 nM.

For the compound `CO[C@H]1CC[C@@H](N2c3nc(Nc4cc(F)c5[nH]ncc5c4)ncc3N(c3cccc(C#N)c3)C(=O)[C@H]2C)CC1` [compound 223, 3-[(7R)-2-[(7-fluoro-1H-indazol-5-yl)amino]-8-(cis-4-methoxycyclohexyl)-7-methyl-6-oxo-7,8-dihydropteridin-5(6H)-yl]benzonitrile], the IC50 is not above 100 nM.

As for `CO[C@H]1CC[C@H](N2c3nc(Nc4cc(F)c5[nH]ncc5c4)ncc3N(c3cccc(C#N)c3)C(=O)[C@H]2C)CC1` [compound 224, 3-[(7R)-2-[(7-fluoro-1H-indazol-5-yl)amino]-8-(trans-4-methoxycyclohexyl)-7-methyl-6-oxo-7,8-dihydropteridin-5(6H)-yl]benzonitrile], the IC50 was not above 100 nM.

On to `COc1ccc(N2C(=O)[C@@H](C)N([C@H]3CC[C@H](OC)CC3)c3nc(Nc4cc(F)c5[nH]ncc5c4)ncc32)cc1OC` [compound 225, (7R)-5-(3,4-dimethoxyphenyl)-2-[(7-fluoro-1H-indazol-5-yl)amino]-8-(trans-4-methoxycyclohexyl)-7-methyl-7,8-dihydropteridin-6(5H)-one], for which the IC50 is not above 100 nM.

For `COc1ccc(N2C(=O)[C@@H](C)N([C@H]3CC[C@@H](OC)CC3)c3nc(Nc4cc(F)c5[nH]ncc5c4)ncc32)cc1OC` [compound 226, (7R)-5-(3,4-dimethoxyphenyl)-2-[(7-fluoro-1H-indazol-5-yl)amino]-8-(cis-4-methoxycyclohexyl)-7-methyl-7,8-dihydropteridin-6(5H)-one], the IC50 was not above 100 nM.

For `CO[C@H]1CC[C@@H](N2c3nc(Nc4cc(F)c5[nH]ncc5c4)ncc3N(c3cccnc3)C(=O)[C@H]2C)CC1` [compound 227, (7R)-2-[(7-fluoro-1H-indazol-5-yl)amino]-8-(cis-4-methoxycyclohexyl)-7-methyl-5-(pyridin-3-yl)-7,8-dihydropteridin-6(5H)-one], the IC50 is not above 100 nM.

Regarding `CO[C@H]1CC[C@@H](N2c3nc(Nc4ccc5[nH]c(=O)oc5c4)ncc3N(c3cccc(C#N)c3)C(=O)[C@H]2C)CC1` [compound 228, 3-[(7R)-8-(cis-4-methoxycyclohexyl)-7-methyl-6-oxo-2-[(2-oxo-2,3-dihydro-1,3-benzoxazol-6-yl)amino]-7,8-dihydropteridin-5(6H)-yl]benzonitrile], the IC50 was not above 100 nM.

For `CO[C@H]1CC[C@H](N2c3nc(Nc4ccc5[nH]c(=O)oc5c4)ncc3N(c3cccc(C#N)c3)C(=O)[C@H]2C)CC1` [compound 229, 3-[(7R)-8-(trans-4-methoxycyclohexyl)-7-methyl-6-oxo-2-[(2-oxo-2,3-dihydro-1,3-benzoxazol-6-yl)amino]-7,8-dihydropteridin-5(6H)-yl]benzonitrile], the IC50 was not above 100 nM.

`CO[C@H]1CC[C@H](N2c3nc(Nc4cc5cn[nH]c5cn4)ncc3N(c3cccc(C#N)c3)C(=O)[C@H]2C)CC1` [compound 230, 3-[(7R)-8-(trans-4-methoxycyclohexyl)-7-methyl-6-oxo-2-(1H-pyrazolo[3,4-c]pyridin-5-ylamino)-7,8-dihydropteridin-5(6H)-yl]benzonitrile]: the IC50 was in the range of 100 to 1000 nM.

For the compound `CO[C@H]1CC[C@H](N2c3nc(Nc4cnc5[nH]ncc5c4)ncc3N(c3cccc(C#N)c3)C(=O)[C@H]2C)CC1` [compound 231, 3-[(7R)-8-(trans-4-methoxycyclohexyl)-7-methyl-6-oxo-2-(1H-pyrazolo[3,4-b]pyridin-5-ylamino)-7,8-dihydropteridin-5(6H)-yl]benzonitrile], the IC50 is not above 100 nM.

Consider `CO[C@H]1CC[C@H](N2c3nc(Nc4cc(F)c(O)c(F)c4)ncc3N(c3cccc(C#N)c3)C(=O)[C@H]2C)CC1` [compound 232, 3-[(7R)-2-[(3,5-difluoro-4-hydroxyphenyl)amino]-8-(trans-4-methoxycyclohexyl)-7-methyl-6-oxo-7,8-dihydropteridin-5(6H)-yl]benzonitrile], for which the IC50 is not above 100 nM.

For the compound `CO[C@H]1CC[C@H](N2c3nc(Nc4cc(F)c5[nH]ncc5c4)ncc3N(c3ccc(N4CCN(C)CC4)nc3)C(=O)[C@H]2C)CC1` [compound 233, (7R)-2-[(7-fluoro-1H-indazol-5-yl)amino]-8-(trans-4-methoxycyclohexyl)-7-methyl-5-[6-(4-methylpiperazin-1-yl)pyridin-3-yl]-7,8-dihydropteridin-6(5H)-one], the IC50 was not above 100 nM.

As to `COc1ccc(N2C(=O)[C@@H](C)N([C@H]3CC[C@H](OC)CC3)c3nc(Nc4cnc5[nH]ncc5c4)ncc32)cc1C#N` [compound 234, 2-methoxy-5-[(7R)-8-(trans-4-methoxycyclohexyl)-7-methyl-6-oxo-2-(1H-pyrazolo[3,4-b]pyridin-5-ylamino)-7,8-dihydropteridin-5(6H)-yl]benzonitrile], the IC50 was not above 100 nM.

As for `COc1ccc(N2C(=O)[C@@H](C)N([C@H]3CC[C@H](OC)CC3)c3nc(Nc4ccc5[nH]c(=O)oc5c4)ncc32)cc1C#N` [compound 235, 2-methoxy-5-[(7R)-8-(trans-4-methoxycyclohexyl)-7-methyl-6-oxo-2-[(2-oxo-2,3-dihydro-1,3-benzoxazol-6-yl)amino]-7,8-dihydropteridin-5(6H)-yl]benzonitrile], the IC50 is not above 100 nM.

Regarding `C[C@@H]1C(=O)N(c2cccc(C#N)c2)c2cnc(Nc3cc(F)c4[nH]ncc4c3)nc2N1[C@H]1CC[C@@H](C)CC1` [compound 236, 3-[(7R)-2-[(7-fluoro-1H-indazol-5-yl)amino]-7-methyl-8-(cis-4-methylcyclohexyl)-6-oxo-7,8-dihydropteridin-5(6H)-yl]benzonitrile], the IC50 is not above 100 nM.

The values above are taken from patent US9351974B2, “Substituted pteridinones for the treatment of cancer” (OSI Pharmaceuticals, LLC, priority 2011, dated 2016).
